# Measured values from PMC9798004 (Frontiers in Psychiatry, 2022).
# T1: GPR1 (Homo sapiens, UniProt P46091)
# T1 construct: purchased Eurofins DiscoverX (PathHunter gpcrMAX)
# T1 sequence (P46091 1-355): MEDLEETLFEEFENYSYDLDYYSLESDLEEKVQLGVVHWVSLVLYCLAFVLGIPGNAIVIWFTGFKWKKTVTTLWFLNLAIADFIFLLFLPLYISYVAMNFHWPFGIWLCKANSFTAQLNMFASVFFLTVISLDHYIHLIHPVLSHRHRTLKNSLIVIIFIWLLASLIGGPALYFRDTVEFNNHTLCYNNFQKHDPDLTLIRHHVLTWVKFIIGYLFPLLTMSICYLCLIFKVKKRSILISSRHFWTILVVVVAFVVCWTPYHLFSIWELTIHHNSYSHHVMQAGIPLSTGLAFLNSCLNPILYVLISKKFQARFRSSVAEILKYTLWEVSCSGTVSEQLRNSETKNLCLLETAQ
# T2: FPR1 (Homo sapiens, UniProt P21462)
# T2 sequence (P21462 1-350): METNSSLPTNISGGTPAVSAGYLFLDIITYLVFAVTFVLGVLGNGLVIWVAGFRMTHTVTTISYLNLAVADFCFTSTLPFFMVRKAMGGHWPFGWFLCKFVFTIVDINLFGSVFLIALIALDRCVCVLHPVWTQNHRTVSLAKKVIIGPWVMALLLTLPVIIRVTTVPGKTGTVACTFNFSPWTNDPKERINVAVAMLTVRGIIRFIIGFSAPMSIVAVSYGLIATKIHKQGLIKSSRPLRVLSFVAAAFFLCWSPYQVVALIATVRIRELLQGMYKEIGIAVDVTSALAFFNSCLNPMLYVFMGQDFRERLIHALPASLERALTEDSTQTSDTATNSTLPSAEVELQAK
# T3: GPR103 (Homo sapiens, UniProt Q96P65)
# T3 construct: purchased Eurofins DiscoverX (PathHunter gpcrMAX)
# T3 sequence (Q96P65 1-431): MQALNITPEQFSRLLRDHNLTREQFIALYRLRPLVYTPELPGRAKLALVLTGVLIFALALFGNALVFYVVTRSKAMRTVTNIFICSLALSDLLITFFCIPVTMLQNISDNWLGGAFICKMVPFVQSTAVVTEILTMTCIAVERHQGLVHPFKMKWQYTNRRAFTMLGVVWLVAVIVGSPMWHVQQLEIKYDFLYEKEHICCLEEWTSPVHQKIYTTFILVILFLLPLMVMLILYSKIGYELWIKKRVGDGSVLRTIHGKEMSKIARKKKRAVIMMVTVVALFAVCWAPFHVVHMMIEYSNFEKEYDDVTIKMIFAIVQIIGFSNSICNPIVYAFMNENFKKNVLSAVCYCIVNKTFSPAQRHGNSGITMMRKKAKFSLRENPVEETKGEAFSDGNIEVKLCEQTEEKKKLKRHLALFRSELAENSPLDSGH
# B1: CXCL16: control agonist (protein, UniProt Q9H2A7 30-254, looked up)
# C-X-C motif chemokine 16: NEGSVTGSCYCGKRISSDSPPSVQFMNRLRKHLRAYHRCLYYTRFQLLSWSVCGGNKDPWVQELMSCLDLKECGHAYSGIVAHQKHLLPTSPPISQASEGASSDIHTPAQMLLSTLQSTQRPTLPVGSLSSDKELTRPNETTIHTAGHSLAAGPEAGENQKQPEKNAGPTARTSATVPVLCLLAIIFILTAALSYVLCKRRRGQSPQSSPDLPVHYIPVAPDSNT
# How the values were obtained:
# EDG4 = biological target: T4, EDG4 (Homo sapiens, UniProt Q9HBW0); assay: PathHunter β-arrestin assay; format: cell-based; conditions: screen, control agonist; CHO, RT, 3HR
# T4 construct: purchased Eurofins DiscoverX (PathHunter gpcrMAX)
# EDG7 = biological target: T5, EDG7 (Homo sapiens, UniProt Q9UBY5); assay: PathHunter β-arrestin assay; format: cell-based; conditions: screen, control agonist; CHO, RT, 3HR
# T5 construct: purchased Eurofins DiscoverX (PathHunter gpcrMAX)
# GPR92 = biological target: T6, GPR92 (Homo sapiens, UniProt Q9H1C0); assay: PathHunter β-arrestin assay; format: cell-based; conditions: screen, control agonist; CHO, RT, 3HR
# T6 construct: purchased Eurofins DiscoverX (PathHunter gpcrMAX)
# GPR1 = biological target: T1, GPR1; assay: PathHunter β-arrestin assay; format: cell-based; conditions: screen, control agonist; CHO, 37C, 2HR
# FPRL1 = biological target: T7, FPRL1 (Homo sapiens, UniProt P25090); assay: PathHunter β-arrestin assay; format: cell-based; conditions: screen, control agonist; CHO, 37C, 2HR
# T7 construct: purchased Eurofins DiscoverX (PathHunter gpcrMAX)
# FPR1 = biological target: T2, FPR1; assay: PathHunter β-arrestin assay; format: cell-based; conditions: control agonist
# EBI2 = biological target: T8, EBI2 (Homo sapiens, UniProt P32249); assay: PathHunter β-arrestin assay; format: cell-based; conditions: screen, control agonist; CHO, RT, 2HR
# T8 construct: purchased Eurofins DiscoverX (PathHunter gpcrMAX)
# ADRA1B = biological target: T9, ADRA1B (Homo sapiens, UniProt P35368); assay: PathHunter β-arrestin assay; format: cell-based; conditions: screen, control agonist; CHO, 37C, 2HR
# T9 construct: purchased Eurofins DiscoverX (PathHunter gpcrMAX)
# GPR109B = biological target: T10, GPR109B (Homo sapiens, UniProt P49019); assay: PathHunter β-arrestin assay; format: cell-based; conditions: screen, control agonist; CHO, 37C, 2HR
# T10 construct: purchased Eurofins DiscoverX (PathHunter gpcrMAX)
# DRD2S = DRD2S (Homo sapiens, UniProt P14416); conditions: screen, control agonist; CHO, RT, 2HR
# DRD2L = DRD2L (Homo sapiens, UniProt P14416); assay: PathHunter β-arrestin assay; format: cell-based; conditions: control agonist
# EDG5 = biological target: T11, EDG5 (Homo sapiens, UniProt O95136); assay: PathHunter β-arrestin assay; format: cell-based; conditions: screen, control agonist; CHO, 37C, 2HR
# T11 construct: purchased Eurofins DiscoverX (PathHunter gpcrMAX)
# EDG1 = biological target: T12, EDG1 (Homo sapiens, UniProt P21453); assay: PathHunter β-arrestin assay; format: cell-based; conditions: screen, control agonist; CHO, 37C, 2HR
# T12 construct: purchased Eurofins DiscoverX (PathHunter gpcrMAX)
# EDG3 = biological target: T13, EDG3 (Homo sapiens, UniProt Q99500); assay: PathHunter β-arrestin assay; format: cell-based; conditions: screen, control agonist; CHO, 37C, 2HR
# T13 construct: purchased Eurofins DiscoverX (PathHunter gpcrMAX)
# EDG6 = biological target: T14, EDG6 (Homo sapiens, UniProt O95977); assay: PathHunter β-arrestin assay; format: cell-based; conditions: screen, control agonist; CHO, 37C, 4HR
# T14 construct: purchased Eurofins DiscoverX (PathHunter gpcrMAX)
# GPR103 = biological target: T3, GPR103; assay: PathHunter β-arrestin assay; format: cell-based; conditions: screen, control agonist; CHO, RT, 2HR
# GPR120 = biological target: T15, GPR120 (Homo sapiens, UniProt Q5NUL3); assay: PathHunter β-arrestin assay; format: cell-based; conditions: screen, control agonist; CHO, 37C, 2HR
# T15 construct: purchased Eurofins DiscoverX (PathHunter gpcrMAX)
# FFAR1 = biological target: T16, FFAR1 (Homo sapiens, UniProt O14842); assay: PathHunter β-arrestin assay; format: cell-based; conditions: screen, control agonist; DLD1, 37C, 4HR
# T16 construct: purchased Eurofins DiscoverX (PathHunter gpcrMAX)
# CXCR6 = biological target: T17, CXCR6 (Homo sapiens, UniProt O00574); assay: PathHunter β-arrestin assay; format: cell-based; conditions: screen, control agonist; HEK, 37C, 2HR
# T17 construct: purchased Eurofins DiscoverX (PathHunter gpcrMAX)
# [1] = follow-up concentration-response assays
# Sequence of DRD2L (P14416 whole entry): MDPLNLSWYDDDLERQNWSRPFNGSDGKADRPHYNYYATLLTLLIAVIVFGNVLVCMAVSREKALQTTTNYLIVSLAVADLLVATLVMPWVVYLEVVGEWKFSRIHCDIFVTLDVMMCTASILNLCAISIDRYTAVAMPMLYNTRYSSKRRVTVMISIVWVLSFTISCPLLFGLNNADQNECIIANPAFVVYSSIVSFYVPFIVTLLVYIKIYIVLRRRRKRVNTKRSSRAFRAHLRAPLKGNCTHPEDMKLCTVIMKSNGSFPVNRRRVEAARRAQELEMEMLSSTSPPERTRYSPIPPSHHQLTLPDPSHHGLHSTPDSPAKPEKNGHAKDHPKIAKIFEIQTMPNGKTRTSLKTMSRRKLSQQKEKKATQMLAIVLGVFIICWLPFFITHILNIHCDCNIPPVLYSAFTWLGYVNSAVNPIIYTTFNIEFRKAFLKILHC
# T7 sequence (P25090 whole entry): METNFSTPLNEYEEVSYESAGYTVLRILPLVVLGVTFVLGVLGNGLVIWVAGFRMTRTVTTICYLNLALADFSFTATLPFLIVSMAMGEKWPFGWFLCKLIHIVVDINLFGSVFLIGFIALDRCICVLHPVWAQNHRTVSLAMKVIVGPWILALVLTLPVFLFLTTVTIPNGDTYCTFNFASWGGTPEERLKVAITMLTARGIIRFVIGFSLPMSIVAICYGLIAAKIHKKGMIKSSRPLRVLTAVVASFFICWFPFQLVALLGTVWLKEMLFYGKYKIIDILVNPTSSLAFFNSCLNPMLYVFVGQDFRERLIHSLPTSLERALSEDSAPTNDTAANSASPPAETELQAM
# T6 sequence (Q9H1C0 whole entry): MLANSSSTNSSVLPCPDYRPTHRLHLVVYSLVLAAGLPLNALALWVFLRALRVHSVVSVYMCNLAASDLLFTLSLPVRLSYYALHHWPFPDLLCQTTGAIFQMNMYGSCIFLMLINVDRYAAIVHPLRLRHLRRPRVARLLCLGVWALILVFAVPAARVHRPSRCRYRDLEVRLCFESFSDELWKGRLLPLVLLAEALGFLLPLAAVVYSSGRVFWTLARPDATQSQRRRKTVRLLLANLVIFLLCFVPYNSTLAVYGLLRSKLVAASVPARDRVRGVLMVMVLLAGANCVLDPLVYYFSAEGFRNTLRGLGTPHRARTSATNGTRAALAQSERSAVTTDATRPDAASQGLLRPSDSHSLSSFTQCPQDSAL
# T11 sequence (O95136 whole entry): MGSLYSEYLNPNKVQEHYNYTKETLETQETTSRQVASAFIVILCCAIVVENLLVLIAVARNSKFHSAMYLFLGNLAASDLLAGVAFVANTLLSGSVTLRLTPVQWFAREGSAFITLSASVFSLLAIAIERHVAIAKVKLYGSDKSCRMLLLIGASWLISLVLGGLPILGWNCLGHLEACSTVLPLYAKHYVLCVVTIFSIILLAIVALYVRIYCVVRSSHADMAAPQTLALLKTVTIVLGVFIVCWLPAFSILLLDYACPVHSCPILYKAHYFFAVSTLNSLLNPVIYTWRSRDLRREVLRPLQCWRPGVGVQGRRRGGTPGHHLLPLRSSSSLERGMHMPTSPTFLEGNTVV
# T13 sequence (Q99500 whole entry): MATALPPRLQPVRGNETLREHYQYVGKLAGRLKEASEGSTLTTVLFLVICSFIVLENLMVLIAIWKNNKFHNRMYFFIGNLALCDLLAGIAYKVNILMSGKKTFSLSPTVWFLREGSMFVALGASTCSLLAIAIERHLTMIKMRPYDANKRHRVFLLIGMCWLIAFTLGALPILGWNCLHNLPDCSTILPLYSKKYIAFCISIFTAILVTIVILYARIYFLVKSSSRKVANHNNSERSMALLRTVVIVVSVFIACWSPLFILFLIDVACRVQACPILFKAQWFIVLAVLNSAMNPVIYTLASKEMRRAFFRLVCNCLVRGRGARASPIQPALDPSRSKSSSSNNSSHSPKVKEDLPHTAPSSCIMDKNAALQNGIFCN
# T14 sequence (O95977 whole entry): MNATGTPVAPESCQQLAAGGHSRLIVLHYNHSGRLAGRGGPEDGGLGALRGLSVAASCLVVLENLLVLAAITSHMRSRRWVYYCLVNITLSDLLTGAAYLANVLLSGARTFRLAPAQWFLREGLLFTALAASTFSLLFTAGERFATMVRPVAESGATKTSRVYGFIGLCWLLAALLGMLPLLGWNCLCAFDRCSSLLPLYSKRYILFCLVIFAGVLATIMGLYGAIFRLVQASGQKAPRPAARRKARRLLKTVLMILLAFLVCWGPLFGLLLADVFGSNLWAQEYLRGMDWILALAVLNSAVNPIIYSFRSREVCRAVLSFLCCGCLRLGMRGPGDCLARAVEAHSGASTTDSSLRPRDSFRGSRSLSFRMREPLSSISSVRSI
# T9 sequence (P35368 whole entry): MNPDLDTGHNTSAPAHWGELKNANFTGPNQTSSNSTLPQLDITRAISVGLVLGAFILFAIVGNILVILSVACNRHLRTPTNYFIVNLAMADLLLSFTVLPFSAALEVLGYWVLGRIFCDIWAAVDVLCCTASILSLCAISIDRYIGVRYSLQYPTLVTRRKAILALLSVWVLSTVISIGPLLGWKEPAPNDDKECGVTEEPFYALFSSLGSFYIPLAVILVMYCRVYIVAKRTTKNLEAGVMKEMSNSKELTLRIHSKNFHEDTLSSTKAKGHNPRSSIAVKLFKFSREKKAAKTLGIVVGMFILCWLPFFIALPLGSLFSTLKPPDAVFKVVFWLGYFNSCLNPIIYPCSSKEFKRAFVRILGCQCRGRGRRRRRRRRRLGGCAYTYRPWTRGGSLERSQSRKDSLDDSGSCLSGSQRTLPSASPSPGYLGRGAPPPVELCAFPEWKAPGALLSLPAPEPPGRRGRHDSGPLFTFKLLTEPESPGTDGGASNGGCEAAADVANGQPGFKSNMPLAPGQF
# T10 sequence (P49019 whole entry): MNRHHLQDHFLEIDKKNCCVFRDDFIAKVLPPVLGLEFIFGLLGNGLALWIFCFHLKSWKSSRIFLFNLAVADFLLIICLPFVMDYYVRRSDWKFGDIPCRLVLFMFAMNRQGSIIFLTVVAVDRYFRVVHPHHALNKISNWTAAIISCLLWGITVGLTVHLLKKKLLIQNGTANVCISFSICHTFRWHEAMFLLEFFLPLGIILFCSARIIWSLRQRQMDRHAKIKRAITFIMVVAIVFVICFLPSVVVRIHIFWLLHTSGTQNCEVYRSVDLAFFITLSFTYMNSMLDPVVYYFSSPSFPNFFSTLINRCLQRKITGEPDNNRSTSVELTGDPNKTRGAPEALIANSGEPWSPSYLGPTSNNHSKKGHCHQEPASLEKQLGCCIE
# T8 sequence (P32249 whole entry): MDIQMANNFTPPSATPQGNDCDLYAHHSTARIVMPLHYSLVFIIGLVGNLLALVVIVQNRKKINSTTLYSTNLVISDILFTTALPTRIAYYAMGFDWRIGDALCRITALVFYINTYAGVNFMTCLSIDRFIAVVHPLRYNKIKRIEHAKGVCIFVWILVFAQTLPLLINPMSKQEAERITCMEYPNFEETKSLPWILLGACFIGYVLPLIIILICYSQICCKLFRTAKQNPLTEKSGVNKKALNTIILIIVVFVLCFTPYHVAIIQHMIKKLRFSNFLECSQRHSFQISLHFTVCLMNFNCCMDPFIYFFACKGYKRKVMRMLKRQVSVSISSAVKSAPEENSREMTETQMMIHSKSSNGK
# T12 sequence (P21453 whole entry): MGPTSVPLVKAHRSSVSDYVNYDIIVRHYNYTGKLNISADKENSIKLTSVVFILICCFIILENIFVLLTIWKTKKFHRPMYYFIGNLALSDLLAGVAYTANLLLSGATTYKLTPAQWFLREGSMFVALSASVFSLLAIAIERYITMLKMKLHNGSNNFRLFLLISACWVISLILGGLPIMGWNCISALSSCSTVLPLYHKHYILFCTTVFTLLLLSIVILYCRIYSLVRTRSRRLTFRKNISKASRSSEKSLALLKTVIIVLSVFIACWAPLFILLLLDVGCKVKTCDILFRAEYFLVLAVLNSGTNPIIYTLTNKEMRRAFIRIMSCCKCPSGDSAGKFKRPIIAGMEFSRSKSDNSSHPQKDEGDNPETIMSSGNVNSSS
# T15 sequence (Q5NUL3 whole entry): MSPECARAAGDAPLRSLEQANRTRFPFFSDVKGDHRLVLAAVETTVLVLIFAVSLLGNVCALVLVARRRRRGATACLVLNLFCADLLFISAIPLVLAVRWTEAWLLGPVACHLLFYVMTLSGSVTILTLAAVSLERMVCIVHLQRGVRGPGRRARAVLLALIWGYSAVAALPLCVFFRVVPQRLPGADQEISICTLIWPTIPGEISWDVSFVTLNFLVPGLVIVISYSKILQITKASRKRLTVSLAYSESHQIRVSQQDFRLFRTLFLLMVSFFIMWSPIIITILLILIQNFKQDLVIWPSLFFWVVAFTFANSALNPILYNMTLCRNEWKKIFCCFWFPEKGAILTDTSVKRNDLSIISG
# T16 sequence (O14842 whole entry): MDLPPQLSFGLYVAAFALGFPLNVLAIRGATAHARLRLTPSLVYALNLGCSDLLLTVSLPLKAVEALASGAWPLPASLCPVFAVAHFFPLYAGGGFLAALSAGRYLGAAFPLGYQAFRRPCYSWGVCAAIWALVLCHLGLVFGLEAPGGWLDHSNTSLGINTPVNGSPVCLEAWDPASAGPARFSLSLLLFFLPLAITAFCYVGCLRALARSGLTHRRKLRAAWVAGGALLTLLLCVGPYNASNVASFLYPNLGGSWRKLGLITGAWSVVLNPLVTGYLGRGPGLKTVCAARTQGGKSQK
molecule,measurement,setting,value
CCCCCCCC/C=C\CCCCCCCC(=O)OC[C@@H](O)COP(=O)(O)O [Oleoyl LPA],EC80,EDG4,1960 nM
same,EC80,EDG7,3480 nM
same,EC80,GPR92,4280 nM
Chemerin: control agonist,EC80,GPR1,4.61 nM
WKYMVm-NH2,EC80,FPRL1,3.91 nM
same,EC80,FPR1; [1],8.52 nM
same,EC80,"FPR1; screen, CHO, 37C, 2HR",8.52 nM
"C[C@H](CCCC(C)(C)O)[C@H]1CC[C@H]2[C@@H]3[C@H](O)C=C4C[C@@H](O)CC[C@]4(C)[C@H]3CC[C@]12C [7a,25-Dihydroxycholesterol]",EC80,EBI2,23.3 nM
CNC[C@H](O)c1cccc(O)c1 [Phenylephrine],EC80,ADRA1B,133 nM
CCCCCC(O)CC(=O)O (stereo not drawn) [3-Hydroxyoctanoic Acid],EC80,GPR109B,904000 nM
NCCc1ccc(O)c(O)c1 [Dopamine],EC80,DRD2S,300 nM
same,EC80,DRD2L; [1],200 nM
same,EC80,"DRD2L; screen, CHO, 37C, 2HR",100 nM
CCCCCCCCCCCCC/C=C/[C@@H](O)[C@@H](N)COP(=O)(O)O [S-1-P],EC80,EDG5,119 nM
same,EC80,EDG1,117 nM
same,EC80,EDG3,194 nM
same,EC80,EDG6,180 nM
QRFP-26,EC80,GPR103,14.2 nM
O=C(O)CCc1ccc(NCc2cccc(Oc3ccccc3)c2)cc1 [GW9508],EC80,GPR120,21500 nM
same,EC80,FFAR1,402 nM
B1,EC80,CXCR6,1.39 nM
